Data published in the supplement of paper PMC10307832.

Experiments:
Experiment in all cases: relative viability (nuclei count vs DMSO), 5 days (fraction); higher = more cells survive
[1] = compound: CCC1=CN=CN=C1N2CCN(CC2)CC3=NC4=C(N3)C=C(C=C4)C(F)(F)F + CC(=O)Nc1cccc(-n2c(=O)n(C3CC3)c(=O)c3c(Nc4ccc(I)cc4F)n(C)c(=O)c(C)c32)c1 [Trametinib] (partner 0.02 µM)
Procedure, shortened: (§1)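 One day after seeding in 1536-well plates, lung cancer cell lines were dosed by pin tool. Dosing was either single-drug or a fixed anchor-drug dose plus five library-drug doses (not always all listed) in √10 steps. After 5 days, nuclei were stained in one fix-and-stain step and counted on 4× images, and relative viability is the nuclei count of treated wells over that of vehicle wells, given as the median of duplicate plates.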

[2] = compound: CCC1=CN=CN=C1N2CCN(CC2)CC3=NC4=C(N3)C=C(C=C4)C(F)(F)F + COc1cccc2cc(-c3nc([C@H]4CC[C@H](C(=O)O)CC4)n4ncnc(N)c34)[nH]c12 [OSI-027] (partner 0.5 µM)
Procedure, shortened: as §1

Mirin + Linsitinib = compound: N=C1NC(=O)/C(=C/c2ccc(O)cc2)S1 [Mirin] + C[C@]1(O)C[C@@H](c2nc(-c3ccc4ccc(-c5ccccc5)nc4c3)c3c(N)nccn32)C1 [Linsitinib] (partner 1 µM)
Procedure, shortened: as §1

Mirin + Tozasertib = compound: N=C1NC(=O)/C(=C/c2ccc(O)cc2)S1 [Mirin] + Cc1cc(Nc2cc(N3CCN(C)CC3)nc(Sc3ccc(NC(=O)C4CC4)cc3)n2)n[nH]1 [Tozasertib] (partner 0.1 µM)
Procedure, shortened: as §1

Cell Line	relative viability ([1]; first compound 0.04 µM)	relative viability ([1]; first compound 0.1265 µM)	relative viability ([1]; first compound 0.4 µM)	relative viability ([1]; first compound 1.265 µM)	relative viability ([1]; first compound 4 µM)	relative viability ([2]; first compound 0.04 µM)	relative viability ([2]; first compound 0.1265 µM)	relative viability ([2]; first compound 0.4 µM)	relative viability ([2]; first compound 1.265 µM)	relative viability ([2]; first compound 4 µM)	relative viability (Mirin + Linsitinib; first compound 0.25 µM)	relative viability (Mirin + Linsitinib; first compound 0.7906 µM)	relative viability (Mirin + Linsitinib; first compound 2.5 µM)	relative viability (Mirin + Linsitinib; first compound 7.906 µM)	relative viability (Mirin + Linsitinib; first compound 25 µM)	relative viability (Mirin + Tozasertib; first compound 0.25 µM)	relative viability (Mirin + Tozasertib; first compound 0.7906 µM)	relative viability (Mirin + Tozasertib; first compound 2.5 µM)	relative viability (Mirin + Tozasertib; first compound 7.906 µM)	relative viability (Mirin + Tozasertib; first compound 25 µM)
NCI-H647	0.501	0.543	0.469	0.238	0.448	0.671	0.855	0.557	0.413	0.462	1.37	1.44	1.19	1	0.63	0.23	0.224	0.185	0.165	0.165
NCI-H650	0.95	0.996	0.985	0.814	0.856	0.444	0.427	0.555	0.543	0.511	0.942		0.941		0.956	0.684	0.557	0.707		0.51
NCI-H661	0.638	0.591	0.508	0.471	0.49	0.629	0.674	0.669	0.586	0.621	0.432	0.58	0.613	0.451	0.414	0.351	0.367	0.344	0.337	0.327
NCI-H727	0.346	0.325	0.386	0.323	0.379	0.531	0.618	0.581	0.423	0.533	0.328	0.39	0.3	0.383	0.333	0.705	0.629	0.661	0.543	0.553
NCI-H838	0.574	0.481	0.455	0.412	0.648	0.443	0.438	0.403	0.313	0.354	1.01	1.14	1.12	1.1	0.761	0.265	0.303	0.213	0.23	0.203
NCI-H1355	0.435	0.395	0.426	0.331	0.451	0.433	0.406	0.373	0.327	0.391	0.799	0.852	0.975	0.861	0.747	0.526	0.637	0.533	0.394	0.272
NCI-H1395	1.05	0.993	1.11		0.96	0.572	0.669	0.615	0.641	0.671	1.13		1.07	1.05	0.901	0.703	0.857	0.66	0.772	0.72
